Blank lines part the entries; values can stand above or below the molecule they belong to.
What was measured:
[1] = molecular target: T1, Beta-secretase 1 (Homo sapiens, UniProt P56817); experiment: Inhibition of BACE1 (unknown origin) expressed in CHO-K1 cells using Biotin-GLTNIKTEEISEISYAEVEFR-C[Oregon Green]KK-OH as substrate incubated for 3 hrs by fluorescence polarization
[2] = molecular target: T1, Beta-secretase 1; experiment: Inhibition of BACE1 in human H4 cells transfected with APP695 assessed as […] incubated for 18 hrs by ELISA; type: cell-based
[3] = Dissociation constant, pKa of the compound; type: physicochemical
[4] = molecular target: Voltage-gated inwardly rectifying potassium channel KCNH2 (Homo sapiens, UniProt Q12809); experiment: Inhibition of human ERG expressed in CHO cells at holding potential of -80 mV by patch clamp method; type: cell-based
[5] = molecular target: P-glycoprotein (ABCB1) (Homo sapiens, UniProt P08183); experiment: Substrate activity at P-glycoprotein (unknown origin) in MDCK-MDR1 cells assessed as efflux ratio; type: ADME, cell-based
[6] = molecular target: T1, Beta-secretase 1; experiment: Inhibition of BACE1 (unknown origin) incubated for 120 mins using APP swedish mutant as substrate by FRET assay
[7] = molecular target: T2, Beta-secretase 2 (Homo sapiens, UniProt Q9Y5Z0); experiment: Inhibition of BACE2 (unknown origin) incubated for 450 mins using APP swedish mutant as substrate by FRET assay
T2 sequence (Q9Y5Z0 whole entry): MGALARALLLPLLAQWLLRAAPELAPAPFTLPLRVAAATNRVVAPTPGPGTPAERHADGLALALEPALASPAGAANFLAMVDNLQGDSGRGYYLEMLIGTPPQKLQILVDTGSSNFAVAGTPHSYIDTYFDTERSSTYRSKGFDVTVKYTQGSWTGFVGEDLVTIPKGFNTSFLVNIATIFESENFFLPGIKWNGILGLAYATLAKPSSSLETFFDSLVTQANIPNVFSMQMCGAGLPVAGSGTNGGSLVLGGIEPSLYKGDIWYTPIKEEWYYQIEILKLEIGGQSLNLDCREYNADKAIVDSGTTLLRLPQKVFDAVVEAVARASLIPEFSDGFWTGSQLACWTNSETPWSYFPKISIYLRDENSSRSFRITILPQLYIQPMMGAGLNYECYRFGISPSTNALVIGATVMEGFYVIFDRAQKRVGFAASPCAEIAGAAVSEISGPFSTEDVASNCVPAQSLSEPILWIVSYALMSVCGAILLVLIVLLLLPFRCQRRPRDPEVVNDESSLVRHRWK

[8] = tested on: Canis familiaris; experiment: In vivo inhibition of BACE1 in Beagle dog assessed as reduction in amyloidbeta (1 to 42 residues) at 0.16 mg/kg, po measured at 8 hrs post dose relative to baseline; type: functional; conditions: Canis lupus familiaris
[9] = tested on: Canis familiaris; experiment: In vivo inhibition of BACE1 in Beagle dog assessed as reduction in amyloidbeta (1 to 42 residues) at 0.31 mg/kg, po measured at 8 hrs post dose relative to baseline; type: functional; conditions: Canis lupus familiaris
[10] = tested on: Canis familiaris; experiment: In vivo inhibition of BACE1 in Beagle dog assessed as reduction in amyloidbeta (1 to 42 residues) at 1.25 mg/kg, po measured at 8 hrs post dose relative to baseline; type: functional; conditions: Canis lupus familiaris
[11] = molecular target: T1, Beta-secretase 1; experiment: Inhibition of BACE1 in human SK-N-BE(2) cells expressing human APP695 assessed as reduction in amyloidbeta (1 to 42 residues) level incubated for 18 hrs by sandwich ELISA; type: cell-based
[12] = tested on: Homo sapiens; experiment: In vivo inhibition of BACE1 in human assessed as reduction in amyloidbeta40 level in CSF at 15 mg administered once daily for 14 days relative to baseline; type: functional
[13] = tested on: Homo sapiens; experiment: In vivo inhibition of BACE1 in human assessed as reduction in amyloidbeta40 level in CSF at 50 mg administered once daily for 14 days relative to baseline; type: functional
[14] = tested on: Homo sapiens; experiment: In vivo inhibition of BACE1 in human assessed as reduction in amyloidbeta40 level in CSF at 150 mg administered once daily for 14 days relative to baseline; type: functional
[15] = molecular target: T1, Beta-secretase 1; experiment: Inhibition of human BACE1 using biotin-XSEVNLDAEFRHDSGC-Eu as substrate incubated for 3 hrs by fluorescence method
[16] = tested on: Homo sapiens; experiment: In vivo inhibition of BACE1 in human assessed as reduction in amyloidbeta(1 to 42 residues) level in CSF at 50 mg, qd administered up to 14 days relative to control; type: functional
[17] = tested on: Homo sapiens; experiment: In vivo inhibition of BACE1 in human assessed as reduction in amyloidbeta(1 to 42 residues) level in CSF at 125 mg, qd administered up to 14 days relative to control; type: functional
[18] = tested on: Homo sapiens; experiment: In vivo inhibition of BACE1 in human assessed as reduction in amyloidbeta(1 to 42 residues) level in CSF at 275 mg, qd administered up to 14 days relative to control; type: functional
[19] = molecular target: T1, Beta-secretase 1; experiment: Inhibition of human BACE1 expressed in HEK293 cells incubated for 16 to 24 hrs by FRET assay; type: cell-based
[20] = molecular target: T1, Beta-secretase 1; experiment: Inhibition of BACE1 in human SH-SY5Y cells transfected with APP695 assessed as reduction in amyloidbeta (1 to 40 residues) incubated for 24 hrs by sandwich ELlSA; type: cell-based
[21] = molecular target: T2, Beta-secretase 2; experiment: Inhibition of human BACE2 expressed in HEK293 cells incubated for 16 to 24 hrs by FRET assay; type: cell-based
[22] = tested on: Rattus norvegicus; experiment: In vivo inhibition of BACE1 in Sprague Dawley rat assessed as reduction in amyloidbeta 40 level in brain at 10 mg/kg, po measured at 3 hrs post dose by ELISA relative to control; type: functional
[23] = tested on: Rattus norvegicus; experiment: In vivo inhibition of BACE1 in Sprague Dawley rat assessed as reduction in amyloidbeta 40 level in brain at 30 mg/kg, po measured at 3 hrs post dose by ELISA relative to control; type: functional
[24] = Brain to plasma partition coefficient, Kp of the compound in Sprague Dawley rat at 10 mg/kg, po; type: ADME, organism-based
[25] = Brain to plasma partition coefficient, Kp of the compound in Sprague Dawley rat at 30 mg/kg, po; type: ADME, organism-based
[26] = tested on: Homo sapiens; experiment: In vivo inhibition of BACE1 in human assessed as reduction in amyloidbeta40 level in CSF at 30 mg administered once daily after 14 days relative to baseline; type: functional
[27] = tested on: Homo sapiens; experiment: In vivo inhibition of BACE1 in human assessed as reduction in amyloidbeta40 level in CSF at 50 mg administered once daily after 14 days relative to baseline; type: functional
[28] = tested on: Homo sapiens; experiment: In vivo inhibition of BACE1 in human assessed as reduction in amyloidbeta40 level in CSF at 90 mg administered once daily after 14 days relative to baseline; type: functional

T1 sequence (P56817 whole entry): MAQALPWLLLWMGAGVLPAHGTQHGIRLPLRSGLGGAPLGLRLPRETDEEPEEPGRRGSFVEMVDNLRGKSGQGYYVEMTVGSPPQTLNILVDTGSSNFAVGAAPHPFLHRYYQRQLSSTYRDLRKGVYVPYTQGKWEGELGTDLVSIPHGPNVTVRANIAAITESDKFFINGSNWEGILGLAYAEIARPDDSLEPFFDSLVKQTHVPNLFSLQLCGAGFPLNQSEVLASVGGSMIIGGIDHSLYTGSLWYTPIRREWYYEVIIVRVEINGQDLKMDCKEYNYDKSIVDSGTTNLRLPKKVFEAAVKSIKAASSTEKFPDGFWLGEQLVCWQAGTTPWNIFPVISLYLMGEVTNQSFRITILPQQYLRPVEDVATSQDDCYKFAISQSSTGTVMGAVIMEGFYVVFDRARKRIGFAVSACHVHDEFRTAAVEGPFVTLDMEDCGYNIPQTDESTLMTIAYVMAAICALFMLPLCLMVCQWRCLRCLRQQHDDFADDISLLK
Chain of P-glycoprotein (ABCB1) (P08183 whole entry): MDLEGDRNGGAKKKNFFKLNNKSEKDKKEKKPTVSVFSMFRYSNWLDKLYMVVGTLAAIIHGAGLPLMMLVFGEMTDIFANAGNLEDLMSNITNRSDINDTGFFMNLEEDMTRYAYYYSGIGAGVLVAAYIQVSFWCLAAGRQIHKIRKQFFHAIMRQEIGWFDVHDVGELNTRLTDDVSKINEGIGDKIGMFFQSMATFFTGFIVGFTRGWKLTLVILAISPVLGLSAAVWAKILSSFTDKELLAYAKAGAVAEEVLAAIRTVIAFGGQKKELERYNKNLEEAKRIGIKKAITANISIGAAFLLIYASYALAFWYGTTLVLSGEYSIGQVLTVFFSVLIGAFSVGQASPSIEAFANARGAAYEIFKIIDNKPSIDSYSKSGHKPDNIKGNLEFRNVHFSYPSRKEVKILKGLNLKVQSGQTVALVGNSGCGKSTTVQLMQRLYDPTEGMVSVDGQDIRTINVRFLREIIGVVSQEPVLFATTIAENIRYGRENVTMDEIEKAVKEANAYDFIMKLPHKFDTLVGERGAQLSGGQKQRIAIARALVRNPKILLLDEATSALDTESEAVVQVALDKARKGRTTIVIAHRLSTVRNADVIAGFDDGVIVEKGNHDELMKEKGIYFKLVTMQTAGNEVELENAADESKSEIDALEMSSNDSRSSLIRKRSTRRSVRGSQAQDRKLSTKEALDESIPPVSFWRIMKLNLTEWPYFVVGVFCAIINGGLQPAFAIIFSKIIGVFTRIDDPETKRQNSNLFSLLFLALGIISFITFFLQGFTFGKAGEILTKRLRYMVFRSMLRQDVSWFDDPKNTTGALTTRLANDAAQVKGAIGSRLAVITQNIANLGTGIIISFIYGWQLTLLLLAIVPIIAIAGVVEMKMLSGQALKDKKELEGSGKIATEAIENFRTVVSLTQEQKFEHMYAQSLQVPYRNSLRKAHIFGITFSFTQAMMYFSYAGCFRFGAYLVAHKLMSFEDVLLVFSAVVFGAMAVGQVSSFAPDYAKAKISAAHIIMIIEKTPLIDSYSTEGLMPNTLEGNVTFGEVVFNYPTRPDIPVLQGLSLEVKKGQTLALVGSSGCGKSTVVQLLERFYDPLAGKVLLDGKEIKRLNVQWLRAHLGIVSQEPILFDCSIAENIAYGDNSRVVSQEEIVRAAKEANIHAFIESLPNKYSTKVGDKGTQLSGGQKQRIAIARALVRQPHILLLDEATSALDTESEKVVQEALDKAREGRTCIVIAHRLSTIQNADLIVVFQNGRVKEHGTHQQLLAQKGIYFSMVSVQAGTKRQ
Chain of Voltage-gated inwardly rectifying potassium channel KCNH2 (Q12809 whole entry): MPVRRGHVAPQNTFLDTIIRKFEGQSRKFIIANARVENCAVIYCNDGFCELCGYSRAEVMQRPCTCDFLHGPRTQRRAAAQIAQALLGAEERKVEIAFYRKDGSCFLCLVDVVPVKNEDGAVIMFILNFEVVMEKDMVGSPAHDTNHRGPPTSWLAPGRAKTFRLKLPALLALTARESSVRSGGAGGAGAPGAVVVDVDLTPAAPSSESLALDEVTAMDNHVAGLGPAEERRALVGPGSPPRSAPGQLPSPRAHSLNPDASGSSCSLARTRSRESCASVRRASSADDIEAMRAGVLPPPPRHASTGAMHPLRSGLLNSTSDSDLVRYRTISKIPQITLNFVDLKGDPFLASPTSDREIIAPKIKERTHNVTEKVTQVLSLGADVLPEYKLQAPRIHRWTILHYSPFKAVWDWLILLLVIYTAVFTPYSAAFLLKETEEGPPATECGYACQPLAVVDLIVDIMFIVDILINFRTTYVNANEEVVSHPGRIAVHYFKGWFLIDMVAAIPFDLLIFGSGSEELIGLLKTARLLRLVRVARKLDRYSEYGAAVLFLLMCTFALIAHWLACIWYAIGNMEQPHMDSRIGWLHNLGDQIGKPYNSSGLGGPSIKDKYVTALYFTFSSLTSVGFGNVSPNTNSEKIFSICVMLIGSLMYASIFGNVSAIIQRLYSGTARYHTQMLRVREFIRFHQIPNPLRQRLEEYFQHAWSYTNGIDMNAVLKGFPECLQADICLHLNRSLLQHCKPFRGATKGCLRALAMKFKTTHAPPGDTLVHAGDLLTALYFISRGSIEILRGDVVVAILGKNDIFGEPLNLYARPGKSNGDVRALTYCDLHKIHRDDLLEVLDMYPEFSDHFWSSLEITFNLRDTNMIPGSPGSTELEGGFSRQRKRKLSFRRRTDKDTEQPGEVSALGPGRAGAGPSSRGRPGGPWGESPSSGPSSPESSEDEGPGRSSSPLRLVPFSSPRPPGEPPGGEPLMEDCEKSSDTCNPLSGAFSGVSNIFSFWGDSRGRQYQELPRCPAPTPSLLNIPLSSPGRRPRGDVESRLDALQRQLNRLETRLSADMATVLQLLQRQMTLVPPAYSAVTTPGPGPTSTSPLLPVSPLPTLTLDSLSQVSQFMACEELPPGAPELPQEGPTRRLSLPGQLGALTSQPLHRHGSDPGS

IC50 [1]: > 100 µM | IC50 [2]: 13.6 µM | pKa [3]: 7 | efflux ratio [5]: 7
Compound: C[C@H]1C[C@H]2CSC(N)=N[C@@]2(c2ncc(NC(=O)c3ccc(OC(F)F)cn3)s2)CO1
IC50 [4]: 12 µM

Compound: C[C@@]1(S(C)(=O)=O)CC[C@@](CF)(c2cc(NC(=O)c3ccc(OCF)cn3)ccc2F)N=C1N
IC50 [6]: 2.2 nM | IC50 [7]: 16.6 nM | inhibition in vivo at 0.16 mg/kg [8]: 71% | inhibition in vivo at 0.31 mg/kg [9]: 78% | inhibition in vivo at 1.25 mg/kg [10]: 89% | IC50 [11]: 1.6 nM

Compound: C[C@H]1OC[C@]2(c3cc(NC(=O)c4ccc(C#N)cn4)ccc3F)N=C(N)[C@](C)(C#N)C[C@H]12
IC50 [6]: 1.86 nM | IC50 [7]: 14.5 nM | inhibition in vivo at 0.16 mg/kg [8]: 42% | inhibition in vivo at 0.31 mg/kg [9]: 54% | inhibition in vivo at 1.25 mg/kg [10]: 80% | IC50 [11]: 1.26 nM

Compound: CC#Cc1cncc(-c2ccc3c(c2)[C@]2(N=C(C)C(N)=N2)[C@]2(CC[C@@H](OC)CC2)C3)c1
inhibition (INH) [12]: 52% | inhibition (INH) [13]: 76% | inhibition (INH) [14]: 90%

IC50 [15]: 54 nM
Compound: CC#CC(=O)Nc1ccc(F)c(C2(C)Cc3c(F)cncc3C(N)=N2)c1 (stereo not given)

Compound: C[C@H]1C[C@H]2CSC(N)=N[C@@]2(c2nc(NC(=O)c3ccc(OC(F)F)cn3)cs2)CO1
inhibition (INH) [16]: 69% | inhibition (INH) [17]: 84% | inhibition (INH) [18]: 93% | pKa [3]: 6.9

IC50 [19]: 11.9 nM | IC50 [20]: 1.03 nM | IC50 [21]: 602 nM
Compound: CC(F)(F)[C@H]1OC[C@]2(c3cc(NC(=O)c4ccc(C(F)(F)F)cn4)ccc3F)N=C(N)SC[C@H]12

Compound: Cc1cc(C#N)cnc1C(=O)Nc1ccc(F)c([C@@]2(C)N=C(N)[C@@](C)(F)CC2(F)F)c1
inhibition in vivo at 10 mg/kg [22]: 66% | inhibition in vivo at 30 mg/kg [23]: 61% | Kp [24]: 0.5 | Kp [25]: 0.5

Compound: C[C@@]1(c2cc(NC(=O)c3ccc(C#N)cn3)ccc2F)C=CSC(N)=N1 [ATABECESTAT]
inhibition (INH) [26]: >80% | inhibition (INH) [27]: >80% | inhibition (INH) [28]: >80%
